Assay results as given in patent US9527867B2, “Antibacterial biaromatic derivatives” (Actelion Pharmaceuticals Ltd., priority 2013, dated 2016).
Values after ≈ are worked out from the molar mass of the structure shown.

Assays:
Test in all cases: Bacterial growth minimal inhibitory concentration (broth microdilution, CLSI M7-A7)
Format in all cases: cell-based
[1] = tested on: Acinetobacter baumannii T6474; details: multiply-resistant strain (in particular quinolone-resistant); for MIC: Acinetobacter baumannii, T6474, cation-adjusted Mueller-Hinton Broth; for MIC for A. baumannii T6474: cation-adjusted Mueller-Hinton Broth
In short: (§1)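 Testing used quinolone-resistant, multiply resistant isolates (S. aureus A798, A. baumannii T6474) plus quinolone-sensitive M. catarrhalis A894 and methicillin-sensitive S. aureus ATCC29213. MICs, in mg/L, came from CLSI M7-A7 microdilution in cation-adjusted Mueller-Hinton broth.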

[2] = tested on: Enterococcus faecium A949; details: multiply-resistant strain (in particular quinolone-resistant); for MIC: Enterococcus faecium, A949, cation-adjusted Mueller-Hinton Broth, read-out: MIC for E. faecium A949; for MIC for E. faecium A949: cation-adjusted Mueller-Hinton Broth
In short: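 Broth microdilution after CLSI M7-A7 in cation-adjusted Mueller-Hinton medium gave MIC values in mg/L.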

[3] = tested on: Moraxella catarrhalis A894; details: quinolone-sensitive strain; for MIC: Moraxella catarrhalis, A894, cation-adjusted Mueller-Hinton Broth; for MIC for M. catarrhalis A894: cation-adjusted Mueller-Hinton Broth
In short: as §1

[4] = tested on: Staphylococcus aureus A798; details: multiply-resistant strain (in particular quinolone-resistant); for MIC: Staphylococcus aureus, A798, cation-adjusted Mueller-Hinton Broth, read-out: MIC for S. aureus A798; for MIC for S. aureus A798: cation-adjusted Mueller-Hinton Broth
In short: as §1

[5] = tested on: Staphylococcus aureus ATCC29213; details: methicillin-sensitive and quinolone-sensitive strain; for MIC: Staphylococcus aureus, ATCC29213, cation-adjusted Mueller-Hinton Broth, read-out: MIC for S. aureus ATCC29213; for MIC for S. aureus ATCC29213: cation-adjusted Mueller-Hinton Broth
In short: as §1

Molecule	MIC [1]	MIC [2]	MIC [3]	MIC [4]	MIC [5]	MIC for A. baumannii T6474 [1]	MIC for E. faecium A949 [2]	MIC for M. catarrhalis A894 [3]	MIC for S. aureus A798 [4]	MIC for S. aureus ATCC29213 [5]
6-(5-{2-[(3′-methoxy-biphenyl-3-ylmethyl)-amino]-ethyl}-2-oxo-oxazol-3-yl)-4H-pyrido[3,2-b][1,4]oxazin-3-one [Example 34]	–	–	–	–	–	0.25 µg/mL	1 µg/mL	≦0.016 mg/L	0.125 µg/mL	0.125 µg/mL
COc1cc(C#N)cc(-c2cccc(CNCC[C@@H]3CN(c4ccc5c(c4)NC(=O)CS5)C(=O)O3)c2)c1 [Example 9, 5-methoxy-3′-({2-[(R)-2-oxo-3-(3-oxo-3,4-dihydro-2H-benzo[1,4]thiazin-6-yl)-oxazolidin-5-yl]-ethylamino}-methyl)-biphenyl-3-carbonitrile]	0.25 µg/mL (≈ 0.486 µM)	1 µg/mL (≈ 1.94 µM)	≤ 0.016 µg/mL	0.031 µg/mL (≈ 0.0602 µM)	0.031 µg/mL (≈ 0.0602 µM)	–	–	–	–	–
N#CC1(COc2cccc(-c3cccc(CNCC[C@H]4CN(c5ccc6c(n5)NC(=O)CO6)C(=O)O4)c3)c2)CCC1 [Example 71, 1-[3′-({2-[(S)-2-oxo-3-(3-oxo-3,4-dihydro-2H-pyrido[3,2-b][1,4]oxazin-6-yl)-oxazolidin-5-yl]-ethylamino}-methyl)-biphenyl-3-yloxymethyl]-cyclobutanecarbonitrile]	> 8 µg/mL	8 µg/mL (≈ 14.5 µM)	0.25 µg/mL (≈ 0.452 µM)	1 µg/mL (≈ 1.81 µM)	1 µg/mL (≈ 1.81 µM)	–	–	–	–	–
COc1cccc(-c2cccc(CNCC[C@@H]3CN(c4ccc5c(c4)NC(=O)CS5)C(=O)O3)c2F)c1 [Example 12, 6-((R)-5-{2-[(2-fluoro-3′-methoxy-biphenyl-3-ylmethyl)-amino]-ethyl}-2-oxo-oxazolidin-3-yl)-4H-benzo[1,4]thiazin-3-one]	2 µg/mL (≈ 3.94 µM)	2 µg/mL (≈ 3.94 µM)	0.063 µg/mL (≈ 0.124 µM)	0.5 µg/mL (≈ 0.985 µM)	0.5 µg/mL (≈ 0.985 µM)	–	–	–	–	–
N#Cc1cccc(-c2cccc(CNCC[C@H]3CN(c4ccc5c(n4)NC(=O)CO5)C(=O)O3)c2)c1 [Example 40, 3′-({2-[(S)-2-oxo-3-(3-oxo-3,4-dihydro-2H-pyrido[3,2-b][1,4]oxazin-6-yl)-oxazolidin-5-yl]-ethylamino}-methyl)-biphenyl-3-carbonitrile]	0.25 µg/mL (≈ 0.532 µM)	2 µg/mL (≈ 4.26 µM)	≤ 0.016 µg/mL	0.125 µg/mL (≈ 0.266 µM)	0.125 µg/mL (≈ 0.266 µM)	–	–	–	–	–
COc1cc(-c2cccc(CNCC[C@@H]3CN(c4ccc5c(c4)NC(=O)CS5)C(=O)O3)c2)nc(OC)n1 [Example 26, 6-((R)-5-{2-[3-(2,6-dimethoxy-pyrimidin-4-yl)-benzylamino]-ethyl}-2-oxo-oxazolidin-3-yl)-4H-benzo[1,4]thiazin-3-one]	2 µg/mL (≈ 3.83 µM)	4 µg/mL (≈ 7.67 µM)	0.063 µg/mL (≈ 0.121 µM)	0.25 µg/mL (≈ 0.479 µM)	0.5 µg/mL (≈ 0.959 µM)	–	–	–	–	–
COc1cc(-c2cccc(CNCC[C@@H]3CN(c4ccc5c(c4)NC(=O)CS5)C(=O)O3)c2)ccc1C(N)=O [Example 29, 3-methoxy-3′-({2-[(R)-2-oxo-3-(3-oxo-3,4-dihydro-2H-benzo[1,4]thiazin-6-yl)-oxazolidin-5-yl]-ethylamino}-methyl)-biphenyl-4-carboxylic acid amide]	2 µg/mL (≈ 3.76 µM)	8 µg/mL (≈ 15 µM)	0.063 µg/mL (≈ 0.118 µM)	2 µg/mL (≈ 3.76 µM)	1 µg/mL (≈ 1.88 µM)	–	–	–	–	–
COc1cccc(-c2cc(CNCC[C@@H]3CN(c4ccc5c(c4)NC(=O)CS5)C(=O)O3)ccn2)c1 [Example 39, 6-[(R)-5-(2-{[2-(3-methoxy-phenyl)-pyridin-4-ylmethyl]-amino}-ethyl)-2-oxo-oxazolidin-3-yl]-4H-benzo[1,4]thiazin-3-one]	2 µg/mL (≈ 4.08 µM)	4 µg/mL (≈ 8.15 µM)	0.125 µg/mL (≈ 0.255 µM)	1 µg/mL (≈ 2.04 µM)	1 µg/mL (≈ 2.04 µM)	–	–	–	–	–
COc1cc(O)cc(-c2cccc(CNCC[C@@H]3CN(c4ccc5c(c4)NC(=O)CS5)C(=O)O3)c2)c1 [Example 10, 6-((R)-5-{2-[(3′-hydroxy-5′-methoxy-biphenyl-3-ylmethyl)-amino]-ethyl}-2-oxo-oxazolidin-3-yl)-4H-benzo[1,4]thiazin-3-one]	0.5 µg/mL (≈ 0.989 µM)	8 µg/mL (≈ 15.8 µM)	≤ 0.016 µg/mL	0.5 µg/mL (≈ 0.989 µM)	0.5 µg/mL (≈ 0.989 µM)	–	–	–	–	–
COc1cccc(-c2cc(CNCC[C@H]3CN(c4ccc5c(n4)NC(=O)CO5)C(=O)O3)ccc2O)n1 [Example 109]	–	–	–	–	–	0.125 µg/mL	2 µg/mL	≦0.016 mg/L	0.031 µg/mL	0.031 µg/mL
COc1cc(OC)nc(-c2cccc(CNCC[C@@H]3CN(c4ccc5c(c4)NC(=O)CS5)C(=O)O3)c2)n1 [Example 27, 6-((R)-5-{2-[3-(4,6-dimethoxy-pyrimidin-2-yl)-benzylamino]-ethyl}-2-oxo-oxazolidin-3-yl)-4H-benzo[1,4]thiazin-3-one]	0.5 µg/mL (≈ 0.959 µM)	1 µg/mL (≈ 1.92 µM)	≤ 0.016 µg/mL	0.031 µg/mL (≈ 0.0594 µM)	0.063 µg/mL (≈ 0.121 µM)	–	–	–	–	–

Second part, led by results:

MIC [1]	MIC [2]	MIC [3]	MIC [4]	MIC [5]	Molecule	MIC for A. baumannii T6474 [1]	MIC for E. faecium A949 [2]	MIC for M. catarrhalis A894 [3]	MIC for S. aureus A798 [4]	MIC for S. aureus ATCC29213 [5]
0.5 µg/mL (≈ 1.05 µM)	8 µg/mL (≈ 16.8 µM)	0.063 µg/mL (≈ 0.132 µM)	0.5 µg/mL (≈ 1.05 µM)	0.5 µg/mL (≈ 1.05 µM)	COc1ccc(-c2cccc(CNCC[C@H]3CN(c4ccc5c(n4)NC(=O)CO5)C(=O)O3)c2)nn1 [Example 79, 6-((S)-5-{2-[3-(6-methoxy-pyridazin-3-yl)-benzylamino]-ethyl}-2-oxo-oxazolidin-3-yl)-4H-pyrido[3,2-b][1,4]oxazin-3-one]	–	–	–	–	–
0.125 µg/mL (≈ 0.255 µM)	0.5 µg/mL (≈ 1.02 µM)	≤ 0.016 µg/mL	≤ 0.016 µg/mL	≤ 0.016 µg/mL	COc1cccc(-c2cccc(CNCCc3cn(-c4ccc5c(n4)NC(=O)CO5)c(=O)o3)c2O)n1 [Example 85, 6-(5-{2-[2-hydroxy-3-(6-methoxy-pyridin-2-yl)-benzylamino]-ethyl}-2-oxo-oxazol-3-yl)-4H-pyrido[3,2-b][1,4]oxazin-3-one]	–	–	–	–	–
0.5 µg/mL (≈ 1.05 µM)	2 µg/mL (≈ 4.2 µM)	0.031 µg/mL (≈ 0.0651 µM)	0.25 µg/mL (≈ 0.525 µM)	0.25 µg/mL (≈ 0.525 µM)	COc1cccc(-c2cncc(CNCC[C@H]3CN(c4ccc5c(n4)NC(=O)CO5)C(=O)O3)n2)c1 [Example 104, 6-[(S)-5-(2-{[6-(3-methoxy-phenyl)-pyrazin-2-ylmethyl]-amino}-ethyl)-2-oxo-oxazolidin-3-yl]-4H-pyrido[3,2-b][1,4]oxazin-3-one]	–	–	–	–	–
0.125 µg/mL (≈ 0.258 µM)	1 µg/mL (≈ 2.06 µM)	≤ 0.016 µg/mL	0.031 µg/mL (≈ 0.064 µM)	0.031 µg/mL (≈ 0.064 µM)	N#Cc1cccc(-c2cccc(CNCCc3cn(-c4ccc5c(n4)NC(=O)CO5)c(=O)o3)c2O)n1 [Example 96, 6-[2-hydroxy-3-({2-[2-oxo-3-(3-oxo-3,4-dihydro-2H-pyrido[3,2-b][1,4]oxazin-6-yl)-2,3-dihydro-oxazol-5-yl]-ethylamino}-methyl)-phenyl]-pyridine-2-carbonitrile]	–	–	–	–	–
0.25 µg/mL (≈ 0.51 µM)	0.5 µg/mL (≈ 1.02 µM)	≤ 0.016 µg/mL	0.063 µg/mL (≈ 0.128 µM)	0.125 µg/mL (≈ 0.255 µM)	COc1cccc(-c2cccc(CNCCc3nn(-c4ccc5c(n4)NC(=O)CO5)c(=O)o3)c2O)n1 [Example 74, 6-(5-{2-[2-hydroxy-3-(6-methoxy-pyridin-2-yl)-benzylamino]-ethyl}-2-oxo-[1,3,4]oxadiazol-3-yl)-4H-pyrido[3,2-b][1,4]oxazin-3-one]	–	–	–	–	–
0.125 µg/mL (≈ 0.254 µM)	2 µg/mL (≈ 4.07 µM)	≤ 0.016 µg/mL	≤ 0.016 µg/mL	≤ 0.016 µg/mL	COc1ccnc(-c2cc(CNCC[C@H]3CN(c4ccc5c(n4)NC(=O)CO5)C(=O)O3)ccc2O)c1 [Example 101, 6-((S)-5-{2-[4-hydroxy-3-(4-methoxy-pyridin-2-yl)-benzylamino]-ethyl}-2-oxo-oxazolidin-3-yl)-4H-pyrido[3,2-b][1,4]oxazin-3-one]	–	–	–	–	–
0.25 µg/mL (≈ 0.526 µM)	1 µg/mL (≈ 2.1 µM)	≤ 0.016 µg/mL	0.063 µg/mL (≈ 0.132 µM)	0.063 µg/mL (≈ 0.132 µM)	COc1cccc(-c2cccc(CNCC[C@H]3CN(c4ccc5c(n4)NC(=O)CO5)C(=O)O3)c2)n1 [Example 41, 6-((S)-5-{2-[3-(6-methoxy-pyridin-2-yl)-benzylamino]-ethyl}-2-oxo-oxazolidin-3-yl)-4H-pyrido[3,2-b][1,4]oxazin-3-one]	–	–	–	–	–
2 µg/mL (≈ 4.12 µM)	> 8 µg/mL	0.125 µg/mL (≈ 0.257 µM)	4 µg/mL (≈ 8.24 µM)	2 µg/mL (≈ 4.12 µM)	N#Cc1ccc(O)c(-c2cccc(CNCC[C@H]3CN(c4ccc5c(n4)NC(=O)CO5)C(=O)O3)c2)c1 [Example 45, 6-hydroxy-3′-({2-[(S)-2-oxo-3-(3-oxo-3,4-dihydro-2H-pyrido[3,2-b][1,4]oxazin-6-yl)-oxazolidin-5-yl]-ethylamino}-methyl)-biphenyl-3-carbonitrile]	–	–	–	–	–
1 µg/mL (≈ 2.1 µM)	> 8 µg/mL	0.125 µg/mL (≈ 0.263 µM)	4 µg/mL (≈ 8.41 µM)	2 µg/mL (≈ 4.21 µM)	COc1cnnc(-c2cccc(CNCCc3nn(-c4ccc5c(n4)NC(=O)CO5)c(=O)o3)c2)c1 [Example 108, 6-(5-{2-[3-(5-methoxy-pyridazin-3-yl)-benzylamino]-ethyl}-2-oxo-[1,3,4]oxadiazol-3-yl)-4H-pyrido[3,2-b][1,4]oxazin-3-one]	–	–	–	–	–
0.25 µg/mL (≈ 0.515 µM)	4 µg/mL (≈ 8.24 µM)	≤ 0.016 µg/mL	0.25 µg/mL (≈ 0.515 µM)	0.125 µg/mL (≈ 0.257 µM)	N#Cc1cccc(-c2cccc(CNCC[C@H]3CN(c4ccc5c(c4)NC(=O)CO5)C(=O)O3)c2O)n1 [Example 88, 6-[2-hydroxy-3-({2-[(S)-2-oxo-3-(3-oxo-3,4-dihydro-2H-benzo[1,4]oxazin-6-yl)-oxazolidin-5-yl]-ethylamino}-methyl)-phenyl]-pyridine-2-carbonitrile]	–	–	–	–	–
